Laboratory results taken from paper PMC3702004, “Comparison of Intake and Systemic Relative Effect Potencies of Dioxin-like Compounds in Female Mice after a Single Oral Dose” (Environmental Health Perspectives, 2013).

Tested on: Cyp1b1 mRNA in liver
Experiment: Cyp1b1 gene expression in liver (real-time PCR)
Type: in vivo, female C57BL/6 mice
Conditions: for BMR20TCDD Liver Cyp1b1 mRNA: 3 days after single oral dose; for REP Liver Cyp1b1 mRNA: relative to TCDD; for Effect on hepatic Cyp1b1 mRNA expression: single oral dose, day 3
Experimental: Animals. Eight-week-old female C57BL/6 mice (Harlan laboratories, Venray, the Netherlands) were randomly assigned to treatment groups (six animals per group) and allowed to acclimate for 1.5 weeks. The animals were housed in groups in standard cages and conditions (23 ± 2°C, 50–60% relative humidity, 12-hr dark/light cycle) with free access to food and water. Mice received a single dose of test compound by oral gavage at a dosing volume of 10 mL/kg body weight (BW). Mice treated with corn oil vehicle (10 mL/kg BW) served as controls. For each congener, five different doses were administered, ranging from 0.5–100 μg/kg BW (TCDD) to 5,000–500,000 µg/kg BW (PCB-153). Detailed information on doses is provided in Supplemental Material, Table S1 (http://dx.doi.org/10.1289/ehp.1206336). On day 3 after dosing, animals were euthanized by CO2/O2 asphyxiation, and blood was immediately collected from the abdominal aorta. The liver, thymus, spleen, and adipose tissue were removed, weighed (liver, thymus, and spleen), snap frozen, and stored at –80°C. All animal treatments were performed with permission of the Animal Ethical Committee (DEC Utrecht) and performed according to the [Law on Animal Experiments (1977)]. Animals were treated humanely and with regard for alleviation of suffering.
RNA isolation and quantitative real-time polymerase chain reaction (PCR). Total RNA was isolated from liver and PBLs using a QIAGEN RNeasy kit (QIAGEN). Purity and concentration of the isolated RNA was determined by measuring the absorbance ratio at 260/280 nm and 230/260 nm with a Nanodrop 2000 spectrophotometer (Thermo Scientific, Asheville, NC, USA). RNA was reverse transcribed to complementary DNA (cDNA) using the iScript cDNA synthesis Kit (Bio-Rad, Veenendaal, the Netherlands). Quantitative real-time PCR analyses were performed using the iQ Real-Time PCR Detection System with SYBR green (Bio-Rad). Amplification reactions were set up with […] containing 12.5 μL iQ SYBR Green Supermix (Bio-rad), 0.5 μL distilled H2O, 1 μL (10 μM) forward primer, 1 μL (10 μM) reverse primer, and 10 μL first strand cDNA (10X diluted). Primer sequences were as follows: Cyp1a1: forward-5´-GGTTAACCATGACCGGGAACT-3´ and reverse-5´-TGCCCAAACCAAAGAGAGTGA-3´ ([Schulz et al. 2012]); Cyp1a2: forward-5´-ACATTCCCAAGGAGCGCTGTATCT-3´ and reverse-5´-GTCGATGGCCGAGTTGTTATTGGT-3´ ([Flaveny et al. 2010]); Cyp1b1: forward-5´-GTGGCTGCTCATCCTCTTTACC-3´ and reverse-5´-CCCACAACCTGGTCCAACTC-3´ ([Berge et al. 2004]); β-actin: forward-5´-ATGCTCCCCGGGCTGTAT-3´ and reverse-5´-CATAGGAGTCCTTCTGACCCATTC-3´ ([Schulz et al. 2012]). All primers were run through the National Center for Biotechnology Information Primer-BLAST database (http://www.ncbi.nlm.nih.gov/tools/primer-blast/) to confirm specificity and validate for optimal annealing temperature (60°C for all primers) and efficiency. The efficiency of all primer pairs was 98–102% (tested at 60°C). The following program was used for denaturation and amplification of cDNA: 3 min at 95°C, followed by 40 cycles of 15 sec at 95°C and 45 sec at 60°C. Gene expression for each sample was expressed as threshold cycle (Ct), normalized to the reference gene β-actin (ΔCt). We calculated fold induction relative to the control group.
Data analysis. We obtained concentration–response curves using a sigmoidal dose–response nonlinear regression curve fit with variable slope (GraphPad Prism 6.01; GraphPad Software Inc., San Diego, CA, USA):
In this Hill equation, y is the dependent variable (EROD activity or fold induction of mRNA levels), x the independent variable (administered or systemic dose), E0 is the estimated background response level, Emax is the maximum response, b is the estimated median effective concentration (EC50), and n is the shaping parameter of the Hill curve.
Using the congener-specific BMR20TCDD concentration, REPs were calculated relatively to TCDD: […]

[1] = dose metric Adm dose (µg/kg BW)
[2] = dose metric Syst adipose (ng/g lipid)
[3] = dose metric Syst liver (ng/g lipid)
[4] = dose metric Syst liver (ng/g liver)
[5] = dose metric Syst plasma (ng/g lipid)

SMILES | BMR20TCDD Liver Cyp1b1 mRNA (dose metric Adm dose) | BMR20TCDD Liver Cyp1b1 mRNA (dose metric Syst adipose) | BMR20TCDD Liver Cyp1b1 mRNA (dose metric Syst plasma) | REP Liver Cyp1b1 mRNA [1] | REP Liver Cyp1b1 mRNA [2] | REP Liver Cyp1b1 mRNA [3] | REP Liver Cyp1b1 mRNA [4] | REP Liver Cyp1b1 mRNA [5] | Effect on hepatic Cyp1b1 mRNA expression
Clc1cc2oc3c(Cl)c(Cl)c(Cl)cc3c2cc1Cl [Congener 4-PeCDF, 2,3,4,7,8-pentachlorodibenzofuran] | 150 µg/kg BW | 461 ng/g lipid | 44.6 ng/g lipid | 0.02 | 0.02 | 0.01 | 0.02 | 0.3 | dose-dependently increased
Clc1ccc(-c2cc(Cl)c(Cl)c(Cl)c2)cc1Cl [PCB-126, 3,3´,4,4´,5-pentachlorobiphenyl] |  |  |  |  |  |  |  |  | did not induce
Clc1ccc(-c2cc(Cl)c(Cl)c(Cl)c2Cl)cc1Cl [PCB-156, 2,3,3´,4,4´,5-hexachlorobiphenyl] | 95,664 µg/kg BW | 745,126 ng/g lipid | 553,459 ng/g lipid | 0.00004 | 0.00001 | 0.0003 | 0.0004 | 0.00002 | dose-dependently increased
Clc1cc2c(cc1Cl)Oc1c(cc(Cl)c(Cl)c1Cl)O2 [PeCDD, 1,2,3,7,8-pentachlorodibenzodioxin] | 10.1 µg/kg BW | 19.4 ng/g lipid | 18.5 ng/g lipid | 0.4 | 0.5 | 0.2 | 0.3 | 0.6 | dose-dependently increased
Clc1cc2c(cc1Cl)Oc1cc(Cl)c(Cl)cc1O2 [TCDD, 2,3,7,8-tetrachlorodibenzodioxin, reference compound] | 3.55 µg/kg BW | 10.3 ng/g lipid | 11.6 ng/g lipid | 1 | 1 | 1 | 1 | 1 | dose-dependently increased
